{
  "source": "patent US20230190754A1",
  "about": "“Therapeutic combinations for the treatment of Progressive Fibrosing interstitial lung diseases” (Boehringer Ingelheim International GmbH, priority 2021, published 2023)",
  "key": {"IPF patients [1]": {"tested_on": "IPF patients", "test": "Phase II clinical trial in IPF patients: change from baseline in Forced Vital Capacity (FVC) over 12 weeks (MMRM)", "assay_type": "in vivo, human", "details": "18 mg b.i.d."}, "IPF patients [2]": {"tested_on": "IPF patients", "test": "Phase II clinical trial in IPF patients: completion / premature discontinuation of observation and treatment period", "assay_type": "in vivo, human", "details": "18 mg b.i.d.", "description": "The participants were divided into 2 groups by chance (the “active agent group” and the “placebo group”). […] One 12 mg placebo tablet and one 6 mg placebo tablet (both containing no active ingredient, see Table 1) was administered orally to the patients of the second group twice daily (b.i.d.).\nThe “active agent group” and the “placebo group” were further distributed to two different groups regarding background medication: the “AF-group” (“antifibrotic background medication group”) and the “Non-AF-group” (“no antifibrotic background medication group”). […] The combination of both nintedanib and pirfenidone as background medication was not allowed in the “AF-group”.\nThe trial was a randomised, double-blind, placebo-controlled parallel group study."}, "PDE4 subtypes, A-D": {"tested_on": "PDE4 subtypes, A-D", "details": "cited from earlier work"}, "[3]": {"details": "AF-group (antifibrotic background), listed as Comp. of Form. III"}, "[4]": {"details": "AF-group (antifibrotic background), listed as active agent"}, "[5]": {"details": "AF-group, nintedanib background"}, "[6]": {"details": "AF-group, pirfenidone background"}, "[7]": {"details": "pooled background therapy (Non-AF+AF)"}, "[8]": {"details": "AF-group (antifibrotic background)"}},
  "note": "Values joined by “and” are separate entries in the source; they are usually repeats but may differ in a detail not shown here. Identical values can stand only once.",
  "data": [
    {"smiles": "[O-][S@+]1CCc2nc(N3CCC(c4ncc(Cl)cn4)CC3)nc(NC3(CO)CCC3)c21", "note": "[Comp. of form. III]", "values": [
      {"measurement": "Adjusted mean change from baseline in FVC to week 12 (MMRM)", "setting": "IPF patients [1]; [3]", "result": 2.72, "unit": "mL"},
      {"measurement": "Adjusted mean difference vs. Placebo in change from baseline in FVC to week 12 (MMRM)", "setting": "IPF patients [1]; [3]", "result": "80.4 mL and 80.42 mL"},
      {"measurement": "Adjusted mean change from baseline in FVC to week 12 (MMRM)", "setting": "IPF patients [1]; [4]", "result": "+2.72 ml"},
      {"measurement": "Adjusted mean difference vs. Placebo in change from baseline in FVC to week 12 (MMRM)", "setting": "IPF patients [1]; [4]", "result": 80.42, "unit": "mL"},
      {"measurement": "Adjusted mean change from baseline in FVC to week 12 (MMRM)", "setting": "IPF patients [1]; [5]", "result": 23.41, "unit": "mL"},
      {"measurement": "Adjusted mean difference vs. Placebo in change from baseline in FVC to week 12 (MMRM)", "setting": "IPF patients [1]; [5]", "result": 105.43, "unit": "mL"},
      {"measurement": "Week 12 Mean FVC", "setting": "IPF patients [1]; [5]", "result": 2787.37, "unit": "mL"},
      {"measurement": "Adjusted mean change from baseline in FVC to week 12 (MMRM)", "setting": "IPF patients [1]; AF-group, nintedanib background, listed as PDE4-inhibitor of formula III", "result": "+23.41 ml"},
      {"measurement": "Adjusted mean change from baseline in FVC to week 12 (MMRM)", "setting": "IPF patients [1]; [6]", "result": -18.76, "unit": "mL"},
      {"measurement": "Adjusted mean difference vs. Placebo in change from baseline in FVC to week 12 (MMRM)", "setting": "IPF patients [1]; [6]", "result": 61.30, "unit": "mL"},
      {"measurement": "Week 12 Mean FVC", "setting": "IPF patients [1]; [6]", "result": 2879.35, "unit": "mL"},
      {"measurement": "Adjusted mean change from baseline in FVC to week 12 (MMRM)", "setting": "IPF patients [1]; AF-group, pirfenidone background, listed as PDE4-inhibitor of formula III", "result": -18.67, "unit": "mL"},
      {"measurement": "Adjusted mean change from baseline in FVC to week 12 (MMRM)", "setting": "IPF patients [1]; Non-AF-group", "result": 6.10, "unit": "mL"},
      {"measurement": "Adjusted mean difference vs. Placebo in change from baseline in FVC to week 12 (MMRM)", "setting": "IPF patients [1]; Non-AF-group", "result": "101.7 mL and 101.72 mL"},
      {"measurement": "Adjusted mean difference vs. Placebo in change from baseline in FVC to week 12 (MMRM)", "setting": "IPF patients [1]; Non-AF-group, listed as PDE4-inhibitor of formula III", "result": 101.72, "unit": "mL"},
      {"measurement": "Adjusted mean difference vs. Placebo in change from baseline in FVC to week 12 (MMRM)", "setting": "IPF patients [1]; Non-AF-group, listed as active agent", "result": 101.72, "unit": "mL"},
      {"measurement": "Adjusted mean change from baseline in FVC to week 12 (MMRM)", "setting": "IPF patients [1]; [7]", "result": 4.59, "unit": "mL"},
      {"measurement": "Adjusted mean difference vs. Placebo in change from baseline in FVC to week 12 (MMRM)", "setting": "IPF patients [1]; [7]", "result": 88.38, "unit": "mL"},
      {"measurement": "Adjusted mean change from baseline in FVC to week 12 (MMRM)", "setting": "IPF patients [1]; pooled background therapy (Non-AF+AF), listed as active agent", "result": -4.59, "unit": "mL"},
      {"measurement": "Not completed planned treatment period (premature discontinuation), patients %", "setting": "IPF patients [2]; [8]", "result": 20.4, "unit": "%"},
      {"measurement": "Not completed planned treatment period (premature discontinuation), patients N", "setting": "IPF patients [2]; [8]", "result": 10},
      {"measurement": "Observation period not completed: Death, patients %", "setting": "IPF patients [2]; [8]", "result": 2.0, "unit": "%"},
      {"measurement": "Observation period not completed: Death, patients N", "setting": "IPF patients [2]; [8]", "result": 1},
      {"measurement": "Treatment period not completed: Adverse Event, patients %", "setting": "IPF patients [2]; [8]", "result": 20.4, "unit": "%"},
      {"measurement": "Treatment period not completed: Adverse Event, patients N", "setting": "IPF patients [2]; [8]", "result": 10},
      {"measurement": "Not completed planned treatment period (premature discontinuation), patients %", "setting": "IPF patients [2]; Non-AF-group", "result": 10.4, "unit": "%"},
      {"measurement": "Not completed planned treatment period (premature discontinuation), patients N", "setting": "IPF patients [2]; Non-AF-group", "result": 5},
      {"measurement": "Observation period not completed: Death, patients %", "setting": "IPF patients [2]; Non-AF-group", "result": 2.1, "unit": "%"},
      {"measurement": "Observation period not completed: Death, patients N", "setting": "IPF patients [2]; Non-AF-group", "result": 1},
      {"measurement": "Treatment period not completed: Adverse Event, patients %", "setting": "IPF patients [2]; Non-AF-group", "result": 6.3, "unit": "%"},
      {"measurement": "Treatment period not completed: Adverse Event, patients N", "setting": "IPF patients [2]; Non-AF-group", "result": 3},
      {"measurement": "Preferential enzymatic inhibition among the PDE4 subtypes (in words)", "setting": "PDE4 subtypes, A-D", "result": "inhibit preferentially the PDE4 B subtype"}
    ]}
  ]
}
